Data reported in US20090088380A1, “GHRH ANALOGS AND THERAPEUTIC USES THEREOF” (priority 2007, published 2009).
Non-standard residues stand in square brackets, D forms with d. Residues, ends and D or L forms follow the SMILES beside them.

Columns and labels:
in vivo = conditions: Beagle, dog
Description: No mortality, adverse clinical sign, effects on body weight, food consumption, opthalmology, haematology, coagulation, clinical chemistry, urinalysis or organ weights were noted following the dosing or recovery periods. Microscopic findings at the injection sites were noted among treated animals, however, the changes were reversed following the recovery period. A no adverse effect level for this study was determined to be 3 mg/kg.

Leptin and adiponectin = test: Phase II CKD: fat regulation (leptin, adiponectin); assay type: in vivo, human
Description: Leptin (ng/mL) and adiponectin (μg/mL) were measured at every visit from baseline to Day 28 as markers for regulating metabolism. Samples were analysed at the Department of Nephrology, Endocrinology and Metabolic Diseases, Silesian University School of Medicine, Katowice.

[1] = test system: malnourished subjects with CKD; test: Phase II CKD: hormones (TSH, free thyroxin, testosterone, oestradiol); assay type: in vivo, human; conditions: ITT
Description: A blood sample was taken at screening for analysis of TSH and free thyroxin. […] The hormones testosterone (nmol/L) and oestradiol (nmol/L) were measured at baseline and on Day 28 because those could be affected by GH and could lead to secondary changes in body composition. Samples were analysed locally.

[2] = test system: antibodies to the GHRH(1-29)NH2 synthetic analog; test: Phase I/II study: human anti-GHRH antibodies ELISA; assay type: in vivo; conditions: Day 30 sample, at the dilution tested
Description: On Day 30, an ambulatory control visit took place. Clinical assessments were performed and adverse events were reported. A blood sample was taken to determine the presence of antibodies the GHRH(1-29)NH2 synthetic analog.
Once the volunteers were considered eligible, they were hospitalized for a period of 5 consecutive days. On Day 0 of admission successive samples of blood were taken to perform the basal secretion profile of GH during 24 hours. During 5-day hospitalization period, after the initial blood sampling to determine fasting glucose level, the appropriate dose of the GHRH(1-29)NH2 synthetic analog or placebo was administered and multiple samplings were performed to assess the profile of GH, postprandial glucose level and electrocardiogram after 60 minutes of the application of the GHRH(1-29)NH2 synthetic analog/placebo. Eight hours after drug administration, samples were obtained to determine IGF-1 level, thyroid hormones and routine analysis. After 30 days of admission, all the volunteers returned for new clinical evaluation to record any adverse events that could have occurred from the last day of hospitalization period and to take a blood sample for later determination of anti-GHRH(1-29)NH2 synthetic analog antibodies.
Human anti-GHRH antibodies were measured in ELISA developed LAB Pre-Clinical Research Intl.

[3] = In vitro proteolysis assay in human serum; assay type: in vitro ADME
Description: Proteolysis was stopped by adding 800 μl of ice-cold stop buffer (potassium-phosphate buffer, acidified to pH 0.8 with trifluoroacetic acid (TFA) and boiling 5 min (rat serum only). After centrifugation (12000 g, 5 min, 4° C.) (rat serum only), serum-peptide mixtures were passed through a conditioned Sep-Pak C-18 cartridge to extract native GHRH or a GHRH analog residual concentrations from serum proteins. The native GHRH or the analog was eluted in 2 ml of 50% acetonitrile-0.01% TFA/50% 0.01% aqueous TFA. 200 μl of extracted peptide, representing 1 μg of GHRH or analog at time 0, was quantified by analytical HPLC, using one μ-Bondapak C18 column (10 μm particle size, 0.39×15 cm) (rat serum) or two C18 columns in series (human serum and plasma) and a binary solvent system composed of NaClO4 0.01 M, pH 2.5 and acetonitrile. A linear gradient from 30 to 60% acetonitrile over 45 min (rat serum) or 30 to 50% (human serum and plasma) was used. Elution of intact peptide was monitored at 214 nm and residual concentration determined by assessment of peak surface areas.

[4] = test system: malnourished subjects with CKD; test: Phase II CKD: 24-h urinary electrolytes; assay type: in vivo, human; conditions: for Calcium excretion: mean (SD) / Calcium/Creatinine ratio: median / EER Calcium: mean (SD) / EER Chloride: mean (SD) / EER Phosphate: mean (SD) / EER Potassium: mean (SD) / EER Sodium: mean (SD) / EFER Calcium: mean (SD) / EFER Chloride: mean (SD) / EFER Phosphate: mean (SD) / EFER Potassium: mean (SD) / EFER Sodium: mean (SD) / Fractional Pi reabsorption rate Pi/GFR: mean (SD) / Sodium excretion: mean (SD): ITT population
Description: Subjects collected 24-hour urine samples at screening, baseline (Days 0 to 1) and Days 28 to 29. All of the samples were analysed for creatinine and urea clearance (mL/min). The samples collected at baseline and on Day 28 were also analysed for proteinuria (Coumassie method), PNA, sodium, potassium, chloride, calcium and phosphate. GFR was calculated using the Cockcroft-Gault formula: Electrolyte excretion rates were calculated as follows: ? [formula] Electrolyte fractional excretion rates were calculated as follows: [formula]

[5] = Day 0, listed as GHRH(1-29)NH2 synthetic analog
[6] = Day 28, listed as GHRH(1-29)NH2 synthetic analog
[7] = GHRH vs placebo, changes from baseline to Day 28
[8] = GHRH vs placebo, ANCOVA, assuming log-normal distribution

In the case of `CC[C@H](C)[C@H](NC(=O)[C@H](C)NC(=O)[C@H](CC(=O)O)NC(=O)[C@@H](C)NC(=O)[C@@H](N)Cc1ccc(O)cc1)C(=O)N[C@@H](Cc1ccccc1)C(=O)N[C@H](C(=O)N[C@@H](CC(N)=O)C(=O)N[C@@H](CO)C(=O)N[C@H](Cc1ccc(O)cc1)C(=O)N[C@@H](CCCNC(=N)N)C(=O)N[C@@H](CCCCN)C(=O)N[C@H](C(=O)N[C@@H](CC(C)C)C(=O)N[C@H](C)C(=O)N[C@@H](CCC(N)=O)C(=O)N[C@@H](CC(C)C)C(=O)N[C@@H](CO)C(=O)N[C@@H](C)C(=O)N[C@@H](CCCNC(=N)N)C(=O)N[C@@H](CCCCN)C(=O)N[C@@H](CCCCN)C(=O)N[C@@H](CC(C)C)C(=O)N[C@@H](CCC(N)=O)C(=O)N[C@@H](CC(=O)O)C(=O)N[C@H](C(=O)N[C@@H](CCSC)C(=O)N[C@@H](CO)C(=O)N[C@@H](CCCNC(=N)N)C(N)=O)[C@@H](C)CC)C(C)C)[C@@H](C)O` [GHRH analog #5, [D-Ala^2, D-Tyr^10, D-Ala^15, Lys^22] hGHRH(1-29)-NH2] (H-Y[dA]DAIFTNS[dY]RKVL[dA]QLSARKKLQDIMSR-NH2), the NOAEL at 672 h (in vivo) is reported as 3 mg/kg, the “Adiponectin: median (95% CI)” value (Leptin and adiponectin; ITT, Baseline) is reported as 20604 ng/mL and the “Leptin: mean (SD)” value (Leptin and adiponectin; ITT, Baseline) is reported as 23.80 (34.29) ng/mL. The “Adiponectin: median (95% CI)” value (Leptin and adiponectin; ITT, Day 7) was 21293 (14535; 27438) ng/mL, the “Adiponectin: median (95% CI)” value (Leptin and adiponectin; ITT, Day 14) was 21548 (15810; 27030) ng/mL and the “Adiponectin: median (95% CI)” value (Leptin and adiponectin; ITT, Day 21) was 21905 (15810; 31365) ng/mL. The “Adiponectin: median (95% CI)” value (Leptin and adiponectin; ITT, Day 28) was 20553 (16320; 27030) ng/mL, the “Leptin: mean (SD)” value (Leptin and adiponectin; ITT, Day 28) was 16.81 (21.81) ng/mL and the “Leptin: ratio of means” value (Leptin and adiponectin; ITT, Day 28, vs placebo) was 0.866. For the same compound, the “Leptin reduction from baseline, range in all but two patients” value (Leptin and adiponectin; day 28) was 10-70%, the “Mean leptin as % of the mean in placebo group” value (Leptin and adiponectin; in vivo) was 70% and the “Oestradiol: mean (SD)” value ([1]; Day 0) was 30.400 (23.333) pg/mL. The “Testosterone: mean (SD)” value ([1]; Day 0) was 1.550 (1.974) ng/mL, the “Oestradiol: mean (SD)” value [1, 5] was 30.400 pg/mL and the “Testosterone: mean (SD)” value [1, 5] was 1.550 ng/mL. The “Oestradiol: mean (SD)” value ([1]; Day 28) was 16.281 (10.896) pg/mL, the “Testosterone: mean (SD)” value ([1]; Day 28) was 1.032 (1.327) ng/mL and the “Oestradiol: mean (SD)” value [1, 6] was 16.281 pg/mL. The “Testosterone: mean (SD)” value [1, 6] was 1.032 ng/mL, the “Detectable antibodies to the GHRH(1-29)NH2 synthetic analog” value [2] was “None of the subject samples tested had detectable antibodies” and the “R2 (60 min)” value ([3]; 60-min incubation in human serum) was 1.55 ± 0.04. For the same compound, the “R2 (180 min)” value ([3]; 180-min incubation in human serum) was 2.93 ± 0.87, the “Mean residual amount (%)” value ([3]; human serum, IT 0 min) was 100% and the “Calcium excretion: mean (SD)” value ([4]; Baseline) was 0.988 (0.916) mmol/m^2/24 h. For the same compound, the “Calcium/Creatinine ratio: median” value ([4]; Baseline) was 0.145, the “EER Calcium: mean (SD)” value ([4]; Baseline) was 0.027 (0.027) mmol/kg/24 h and the “EER Chloride: mean (SD)” value ([4]; Baseline) was 2.213 (0.963) mmol/kg/24 h. The “EER Phosphate: mean (SD)” value ([4]; Baseline) was 0.328 (0.220) mmol/kg/24 h, the “EER Potassium: mean (SD)” value ([4]; Baseline) was 0.839 (0.332) mmol/kg/24 h and the “EER Sodium: mean (SD)” value ([4]; Baseline) was 2.428 (1.134) mmol/kg/24 h. For the same compound, the “EFER Calcium: mean (SD)” value ([4]; Baseline) was 1.933 (1.164) %, the “EFER Chloride: mean (SD)” value ([4]; Baseline) was 3.636 (1.945) % and the “EFER Phosphate: mean (SD)” value ([4]; Baseline) was 35.882 (14.172) %. The “EFER Potassium: mean (SD)” value ([4]; Baseline) was 28.325 (13.618) %, the “EFER Sodium: mean (SD)” value ([4]; Baseline) was 3.068 (1.658) % and the “Fractional Pi reabsorption rate Pi/GFR: mean (SD)” value ([4]; Baseline) was 0.861 (0.291) mmol/ml. The “Sodium excretion: mean (SD)” value ([4]; Baseline) was 89.90 (42.10) mmol/m^2/24 h, the “Calcium excretion: mean (SD)” value ([4]; Day 28) was 1.295 (1.231) mmol/m^2/24 h and the “Calcium/Creatinine ratio: median” value ([4]; Day 28) was 0.195. The “EER Calcium: mean (SD)” value ([4]; Day 28) was 0.036 (0.036) mmol/kg/24 h, the “EER Chloride: mean (SD)” value ([4]; Day 28) was 2.277 (1.028) mmol/kg/24 h and the “EER Phosphate: mean (SD)” value ([4]; Day 28) was 0.273 (0.129) mmol/kg/24 h. For the same compound, the “EER Potassium: mean (SD)” value ([4]; Day 28) was 0.656 (0.315) mmol/kg/24 h, the “EER Sodium: mean (SD)” value ([4]; Day 28) was 2.624 (1.020) mmol/kg/24 h and the “EFER Calcium: mean (SD)” value ([4]; Day 28) was 2.743 (2.157) %. The “EFER Chloride: mean (SD)” value ([4]; Day 28) was 4.156 (2.541) %, the “EFER Phosphate: mean (SD)” value ([4]; Day 28) was 35.968 (12.979) % and the “EFER Potassium: mean (SD)” value ([4]; Day 28) was 26.766 (18.120) %. The “EFER Sodium: mean (SD)” value ([4]; Day 28) was 3.359 (1.156) %, the “Fractional Pi reabsorption rate Pi/GFR: mean (SD)” value ([4]; Day 28) was 0.829 (0.211) mmol/ml and the “Sodium excretion: mean (SD)” value ([4]; Day 28) was 96.70 (37.30) mmol/m^2/24 h. For the same compound, the “Calcium excretion: adjusted difference” value [4, 7] was −0.10 mmol/m^2/24 h, the “EER Calcium: adjusted difference” value [4, 7] was −0.002 mmol/kg/24 h and the “EER Chloride: adjusted difference” value [4, 7] was −0.136 mmol/kg/24 h. For the same compound, the “EER Phosphate: adjusted difference” value [4, 7] was 0.020 mmol/kg/24 h, the “EER Potassium: adjusted difference” value [4, 7] was −0.086 mmol/kg/24 h and the “EER Sodium: adjusted difference” value [4, 7] was −0.020 mmol/kg/24 h. For the same compound, the “EFER Calcium: adjusted difference” value [4, 7] was −0.48%, the “EFER Chloride: adjusted difference” value [4, 7] was −1.13% and the “EFER Phosphate: adjusted difference” value [4, 7] was −3.64%. The “EFER Potassium: adjusted difference” value [4, 7] was −7.93%, the “Fractional Pi reabsorption rate Pi/GFR: adjusted difference” value [4, 7] was -0.00006 mmol/mL and the “Sodium excretion: adjusted difference” value [4, 7] was −1.18 mmol/m^2/24 h. The “Calcium/Creatinine ratio: ratio (ratio of means)” value [4, 8] was 0.82, the “EFER Sodium: ratio (ratio of means)” value [4, 8] was 0.79 and the “Calcium excretion: mean difference between groups” value ([4]; in vivo) was −0.10 mmol/m^2/24 h. The “Calcium:creatinine ratio: ratio of means” value ([4]; in vivo) was 0.82, the “EER chloride: mean difference between groups” value ([4]; in vivo) was −0.136 mmol/kg/24 h and the “EER phosphate: mean difference between groups” value ([4]; in vivo) was 0.020 mmol/kg/24 h. The “EER potassium: mean difference between groups” value ([4]; in vivo) was −0.086 mmol/kg/24 h, the “EER sodium: mean difference between groups” value ([4]; in vivo) was −0.020 mmol/kg/24 h and the “EFER chloride: mean difference between groups” value ([4]; in vivo) was −1.13%. The “EFER phosphate: mean difference between groups” value ([4]; in vivo) was −3.64%, the “EFER potassium: mean difference between groups” value ([4]; in vivo) was −7.93% and the “EFER sodium: ratio of means” value ([4]; in vivo) was 0.79. For the same compound, the “Electrolyte excretion rate (EER) calcium: mean difference between groups in change baseline to Day 28” value ([4]; in vivo) was −0.002 mmol/kg/24 h, the “Electrolyte fractional excretion rate (EFER) calcium: mean difference between groups” value ([4]; in vivo) was −0.48% and the “Fractional Pi reabsorption rate (Pi/GFR): mean difference between groups” value ([4]; in vivo) was -0.000059 mmol/mL. For the same compound, the “Sodium excretion: mean difference between groups” value ([4]; in vivo) was −1.18 mmol/m^2/24 h and the “Fractional Pi reabsorption rate (Pi/GFR): mean difference between groups” value ([4]; in vivo, listed as GHRH(1-29)NH2 synthetic analog) was -0.00006 mmol/mL.
